Results from PubChem BioAssay (NCI).
Several values for one entry are separate records, joined by “and”; a condition that tells them apart may be missing. Equal values may be shown once.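 Values below derive from 48-hour exposures of cells grown in 96-well plates, with endpoints linearly interpolated between the two concentrations bracketing the appropriate inhibition level. At the GI50, growth is halved. TGI: total growth inhibition.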

Legend:
Assay in all cases: NCI-60 cell line screen, 48 h
786-0 renal = system: 786-0 renal
ACHN renal = system: ACHN renal
CAKI-1 renal = system: CAKI-1 renal
COLO 205 colon = system: COLO 205 colon
HT29 colon = system: HT29 colon
MALME-3M melanoma = system: MALME-3M melanoma
SK-MEL-2 melanoma = system: SK-MEL-2 melanoma
SK-OV-3 ovarian = system: SK-OV-3 ovarian
SW-620 colon = system: SW-620 colon
UACC-257 melanoma = system: UACC-257 melanoma

Compound	GI50 (786-0 renal)	TGI (786-0 renal)	GI50 (ACHN renal)	TGI (ACHN renal)	GI50 (CAKI-1 renal)	TGI (CAKI-1 renal)	GI50 (COLO 205 colon)	TGI (COLO 205 colon)	GI50 (HT29 colon)	TGI (HT29 colon)	GI50 (MALME-3M melanoma)	TGI (MALME-3M melanoma)	GI50 (SK-MEL-2 melanoma)	TGI (SK-MEL-2 melanoma)	GI50 (SK-OV-3 ovarian)	TGI (SK-OV-3 ovarian)	GI50 (SW-620 colon)	TGI (SW-620 colon)	GI50 (UACC-257 melanoma)	TGI (UACC-257 melanoma)
O=C(/C(=C/c1ccccc1)CN1CCCCC1)c1ccccc1	1.79 µM	3.64 µM	0.518 µM	1.44 µM	0.337 µM	2.84 µM	0.447 µM	1.41 µM	0.518 µM	1.27 µM	1.16 µM	3.58 µM	1.6 µM	4.01 µM	2.75 µM	7.69 µM	0.398 µM	1.53 µM	1.25 µM	3.35 µM
C[C@]12CCC3[C@@H](CC[C@@H]4c5nonc5CC[C@]34C)C1CCC(=O)N2 (some centres not stated)	–	> 100 µM	–	> 100 µM	–	> 100 µM	–	> 100 µM	–	> 100 µM	–	> 100 µM	–	> 100 µM	–	> 100 µM	–	> 100 µM	–	> 100 µM
Cn1cnc2nc(Cl)nc(NC(C)(C)C(C)(C)O)c21	–	> 100 µM	–	> 100 µM	–	> 100 µM	–	> 100 µM	–	> 100 µM	–	> 100 µM	–	> 100 µM	–	> 100 µM	–	> 100 µM	–	> 100 µM
Cc1ccc(C(=O)Nc2cccc(C(F)(F)F)c2)cc1Nc1nc(-c2cccnc2)nc2c1cnn2C	2.67 µM and 1.64 µM	8.01 µM and 5.12 µM	2.13 µM and 1.08 µM	11.1 µM and 7.4 µM	2.44 µM and 1.33 µM	11.8 µM and 3.35 µM	1.22 µM and 0.575 µM	5.79 µM and 3.65 µM	1.48 µM and 0.488 µM	35.1 µM and 4.49 µM	0.482 µM and 0.262 µM	2.77 µM and 1.5 µM	0.721 µM and 0.367 µM	5.03 µM and 2.07 µM	4.48 µM and 3.79 µM	22.2 µM and > 10 µM	1.74 µM and 1.51 µM	13.4 µM and > 10 µM	2.02 µM and 0.875 µM	8.28 µM and 4.76 µM
COc1cc2c(cc1OCCCCOc1cc3c(cc1OC)C(=O)N1CCC[C@H]1CN3)N=C[C@@H]1CCCN1C2=O	2.94 µM	> 100 µM	2.62 µM	29 µM	0.344 µM	–	1.3 µM	5.33 µM	2.37 µM	> 23.2 µM	1.47 µM	4.1 µM	0.826 µM	> 100 µM	7.06 µM	> 100 µM	0.931 µM	> 22.9 µM	5.64 µM	> 100 µM
O=S(=O)(NCCNC/C=C/c1ccc(Br)cc1)c1cccc2cnccc12	4.22 µM and 9.27 µM	19.8 µM and 21.9 µM	10.3 µM and 12.5 µM	22.8 µM and 26.2 µM	4.15 µM and 9.99 µM	18 µM and 27 µM	2.23 µM and 10.7 µM	4.9 µM and 24.6 µM	5.44 µM and 13.7 µM	18.9 µM and 28.8 µM	7.39 µM and 12.7 µM	23 µM and 26.9 µM	11.2 µM and 16.8 µM	24.4 µM and 34 µM	7.26 µM and 11.7 µM	21.1 µM and 25.1 µM	12.6 µM and 16.8 µM	27.6 µM and 32.4 µM	7.83 µM and 14.3 µM	20.8 µM and 27.5 µM
C[C@]12CC[C@H]3[C@@H](CCC4=CC(=O)CC[C@@H]43)[C@@H]1CC[C@@H]2OC(=O)CCc1ccccc1	23.9 µM	50.8 µM	18.9 µM	45.1 µM	12 µM	26.2 µM	16.3 µM	40.1 µM	18.2 µM	56.5 µM	17 µM	34.4 µM	41 µM	> 100 µM	44.1 µM	> 100 µM	20.3 µM	47.2 µM	24.6 µM	59.5 µM
COc1ccc(-c2n[nH]nc2-c2cc(OC)c3c(c2OC)OCO3)cc1	3.07 µM	71.9 µM	9.16 µM	> 100 µM	0.839 µM	> 60.1 µM	1.19 µM	5.57 µM	0.48 µM	13.7 µM	1.34 µM	> 100 µM	0.596 µM	11.4 µM	1.27 µM	9.3 µM	0.348 µM	> 95.6 µM	2.8 µM	> 100 µM
CCOc1ccc2nc(NC(=O)c3c/c(=N\NC(=O)C[N+](C)(C)C)c4ccc(O)cc4o3)sc2c1	–	10.9 µM	–	13.8 µM	–	18.6 µM	–	20.7 µM	–	13 µM	–	2.56 µM	–	6.22 µM	–	25.2 µM	–	5.28 µM	–	3.16 µM
Cc1ccc(C2=NOC3=c4ccccc4=CSC3=C2c2ccc([N+](=O)[O-])cc2)cc1	0.58 µM	72.5 µM	13.8 µM	61.4 µM	16.8 µM	46.8 µM	35.8 µM	> 100 µM	> 100 µM	> 100 µM	17.7 µM	89.5 µM	31.5 µM	> 100 µM	6.91 µM	49 µM	62.3 µM	> 100 µM	44.4 µM	> 100 µM
CCN=C1C=CC(=C(c2ccc(N)cc2)c2ccc(N(CC)CC)c(C)c2)C=C1	0.344 µM	1.84 µM	0.422 µM	2.66 µM	1.92 µM	8.15 µM	0.185 µM	0.4 µM	0.271 µM	1.2 µM	0.329 µM	1.23 µM	0.303 µM	0.943 µM	0.255 µM	0.703 µM	0.345 µM	1.62 µM	0.324 µM	1.69 µM
CCCCCCc1cc(C(=O)Nc2cccc(C(F)(F)F)c2)nc(N)n1	–	> 100 µM	–	> 100 µM	–	> 100 µM	–	> 100 µM	–	> 100 µM	–	> 100 µM	–	> 100 µM	–	> 100 µM	–	> 100 µM	–	> 100 µM
Cc1ccc(NC(=O)/C=C/c2ccccc2)c(C(N)=O)c1	6.41 µM	53 µM	11 µM	> 96.6 µM	6.78 µM	> 59.4 µM	1.68 µM	5.93 µM	2.36 µM	30.8 µM	5.99 µM	> 100 µM	4.75 µM	31.6 µM	3.26 µM	19.1 µM	2.5 µM	> 100 µM	22.5 µM	> 95.3 µM
CN(C)CCCN1c2ccccc2CCc2ccc(Cl)cc21	5.5 µM	19.2 µM	3.81 µM	13.5 µM	3.88 µM	16.8 µM	1.91 µM	3.53 µM	3.38 µM	11.6 µM	2.03 µM	3.99 µM	3.01 µM	7.51 µM	4.49 µM	15.4 µM	3.92 µM	16 µM	1.84 µM	3.41 µM
C/C(=N\Nc1ccc2ccccc2n1)c1ccccn1	0.1 µM	1.69 µM	< 0.0389 µM	1.32 µM	–	0.59 µM	< 0.0195 µM	2.7 µM	< 0.0407 µM	3.09 µM	0.0756 µM	2.15 µM	0.263 µM	9.01 µM	0.132 µM	13.6 µM	–	5.67 µM	0.0579 µM	0.326 µM
O=C(NN1C(=O)CSC12CCCCC2)c1[nH]c2ccc(F)cc2c1-c1ccccc1	26 µM	49.8 µM	20 µM	42.9 µM	31.9 µM	> 100 µM	36.8 µM	> 100 µM	17.8 µM	36.2 µM	20.2 µM	43.5 µM	34.6 µM	> 100 µM	35.8 µM	> 100 µM	26.6 µM	87.5 µM	23.3 µM	56.9 µM
O=c1[nH]c2ccccc2nc1-c1c[nH]c2ccccc12	> 100 µM	> 100 µM	> 100 µM	> 100 µM	2.49 µM	> 100 µM	> 100 µM	> 100 µM	> 100 µM	> 100 µM	39.8 µM	> 100 µM	> 100 µM	> 100 µM	> 100 µM	> 100 µM	> 100 µM	> 100 µM	> 100 µM	> 100 µM
COc1cccc(NC(=O)c2sc3nc4c(cc3c2N)CN(Cc2ccccc2)CC4)c1	3.61 µM	20.8 µM	3.46 µM	64.5 µM	11.7 µM	> 100 µM	7.55 µM	54.5 µM	3.75 µM	15.2 µM	1.43 µM	16.6 µM	10.3 µM	44.5 µM	2.78 µM	14 µM	1.85 µM	72.2 µM	6.52 µM	> 100 µM
N/C(=N\N=C\c1ccc(-c2ccccc2)cc1)N[N+](=O)[O-]	10.4 µM	> 100 µM	> 100 µM	> 100 µM	4.17 µM	> 100 µM	3.38 µM	> 42.1 µM	3.59 µM	> 100 µM	> 100 µM	> 100 µM	4.82 µM	> 100 µM	3.87 µM	> 100 µM	0.796 µM	> 100 µM	> 100 µM	> 100 µM
Cc1cc(N/N=C/c2nc(-c3ccc(Br)cc3)oc2C)c2cc(Cl)ccc2n1	> 100 µM	> 100 µM	> 100 µM	> 100 µM	> 100 µM	> 100 µM	> 100 µM	> 100 µM	> 100 µM	> 100 µM	> 100 µM	> 100 µM	> 100 µM	> 100 µM	> 100 µM	> 100 µM	> 100 µM	> 100 µM	> 100 µM	> 100 µM
